Experiments:
[1] = test system: head and neck cell lines SCC1 and SCC25; assay: [18F]WC-4-138 uptake in cell culture, head and neck lines; assay type: cell-based; details: SCC1 and SCC25, incubation 5, 30 or 60 minutes, normalized to protein
Experimental: (§1) In these experiments, the head and neck squamous cell carcinoma lines SCC1, SCC15, and SCC25 (ATCC) were propagated in Dulbecco's Modified Eagle's Medium (DMEM, Gibco) supplemented with 10% Fetal Bovine Serum (FBS, Gibco), Penicillin-Streptomycin (P/S, Gibco), and 100 ng/ml hydrocortisone (Sigma-Aldrich). The small cell lung cancer lines NCI-h69 and NCI-h82 (ATCC) were propagated m RPMI Medium (Gibco) supplemented with 10% FBS and 1% P/S. The human breast cancer cell line MDA-MB-231 (ATCC) was propagated in Eagle's Minimum Essential Medium (Gibco) supplemented with 5% FBS, 2% Vitamins for MEM (Gibco), 1% 200 mM L-glutamine (Gibco), 1% 10 mM Non-Essential Amino Acid (NEAA, Gibco).
For each experimental replicate, approximately 1 μCi of [^18F]WC-4-138 was diluted in 1 ml of cell culture medium and added to 10^6 cells. After 5, 30, or 60 minutes, the medium was collected and cells were washed twice in 0.7 ml Phosphate Buffered Saline (PBS, Gibco). Adherent cells were collected by scraping the cell culture dish and transferring to a microfuge tube. Radioactivity was measured in the collected medium, PBS, or cell pellets. Protein from the cell pellet was quantified using a […]. All data were decay-corrected and normalized to total protein quantity in the cell pellet. For drug treatment studies, cells were incubated with 10 μM Olaparib or Iniparib twenty-hours prior to incubation with [^18F]WC-4-138.
The head and neck cell lines SCC1 and SCC25 constitutively take up small amounts of tracer, registering as 0.001-0.002 μCi/μg in the cell pellet (FIG. 5A). […] Radioactivity was measured in head and neck squamous cell cancer (HNSCC) lines (SCC1 and SCC25) or small cell lung cancer (SCLC) lines (NCI-h69 and NCI-h82) after incubation with [^18F]WC-4-138 for 5, 30, or 60 minutes (n=3 at each time point). […] PARP activity was measured in HNSCC or lung SCLC cells. (FIG. 5C-D) [^18F]WC-4-138 uptake was measured in HNSCC cell lines treated with olaparib or iniparib. […]

[2] = test system: Lung cell lines NCI-h69 and NCI-h82; assay: [18F]WC-4-138 uptake in cell culture, small cell lung cancer lines; assay type: cell-based; details: NCI-h69 and NCI-h82, incubation 5, 30 or 60 minutes, normalized to protein
Experimental: as §1
For each experimental replicate, approximately 1 μCi of [^18F]WC-4-138 was diluted in 1 ml of cell culture medium and added to 10^6 cells. […] Radioactivity was measured in the collected medium, PBS, or cell pellets. Protein from the cell pellet was quantified using a […]. All data were decay-corrected and normalized to total protein quantity in the cell pellet. […]
The head and neck cell lines SCC1 and SCC25 constitutively take up small amounts of tracer, registering as 0.001-0.002 μCi/μg in the cell pellet (FIG. 5A). […] PARP activity was measured in HNSCC or lung SCLC cells. […]

[3] = Metabolic stability of [18F]WC-4-138 in mice (percent parent by HPLC); assay type: in vivo; details: C57BL/6J mice
Experimental: In these experiments, the metabolic stability of [^18]-WC-4-138 was assessed after injecting 400 μCi into the tail veins of adult male C57BL/6J mice (Jackson Laboratory). Mice were sacrificed by cervical dislocation 5 or 30 minutes post-injection. […] The plasma was separated from the red blood cells by centrifugation at 14000 rpm. Plasma (100 μl) was mixed with acetonitrile at a 1:1.5 ratio and centrifuged at 14000 rpm. Radioactivity associated with the red blood cell pellet, whole plasma, and acetonitrile-soluble and insoluble fractions was measured. The liver of each animal was also collected at the indicated times and frozen on dry ice. Livers were homogenized in 2 ml acetonitrile and 1 ml of the homogenized liver was centrifuged at 14000 rpm. Radioactivity associated with the supernatant and pellet was measured. Acetonitrile-soluble plasma or liver supernatant (100 μl) was mixed at a 1:1 ratio with water and separated by reverse phase HPLC. The parent compound was also separated by HPLC as a reference. The radioactivity associated with each HPLC fraction was measured. The percent parent compound of each sample was calculated as the portion radioactivity associated with the HPLC fractions expected to contain the parent compound.

[4] = Estimated human dosimetry from mouse biodistribution study (MIRD)
Description: Estimates were obtained from the organ residence times calculated from the mouse biodistribution data, shown in Table 1, using standard MIRD methodology.

Structure (SMILES): O=C1NCCn2c(-c3ccc(OCC[18F])cc3)nc3cccc1c32 [[^18F]12]
- tracer uptake in the cell pellet [1]: 0.001-0.002 μCi/μg
- tracer uptake in the cell pellet [2]: 0.004-0.006 μCi/μg
- percent parent compound relative to the reference compound, blood ([3]; 5 minutes post-injection): 50%
- percent parent compound relative to the reference compound, liver ([3]; 5 minutes post-injection): about 80%
- percent parent compound relative to the reference compound, blood ([3]; 30 minutes post-injection): about 10%
- percent parent compound relative to the reference compound, liver ([3]; 30 minutes post-injection): about 70%
- Estimated human dosimetry, Adrenals ([4]; Female): 0.052 rad/mCi
- Estimated human dosimetry, Brain ([4]; Female): 0.022 rad/mCi
- Estimated human dosimetry, Breasts ([4]; Female): 0.019 rad/mCi
- Estimated human dosimetry, Effective Dose ([4]; Female): 0.057 rem/mCi
- Estimated human dosimetry, Effective Dose Equivalent ([4]; Female): 0.075 rad/mCi
- Estimated human dosimetry, Gallbladder Wall ([4]; Female): 0.033 rad/mCi
- Estimated human dosimetry, Heart Wall ([4]; Female): 0.047 rad/mCi
- Estimated human dosimetry, Kidneys ([4]; Female): 0.093 rad/mCi
- Estimated human dosimetry, LLI Wall ([4]; Female): 0.036 rad/mCi
- Estimated human dosimetry, Liver ([4]; Female): 0.065 rad/mCi
- Estimated human dosimetry, Lungs ([4]; Female): 0.045 rad/mCi
- Estimated human dosimetry, Muscle ([4]; Female): 0.035 rad/mCi
- Estimated human dosimetry, Osteogenic Cells ([4]; Female): 0.203 rad/mCi
- Estimated human dosimetry, Ovaries ([4]; Female): 0.045 rad/mCi
- Estimated human dosimetry, Pancreas ([4]; Female): 0.064 rad/mCi
- Estimated human dosimetry, Red Marrow ([4]; Female): 0.069 rad/mCi
- Estimated human dosimetry, Skin ([4]; Female): 0.019 rad/mCi
- Estimated human dosimetry, Small Intestine ([4]; Female): 0.030 rad/mCi
- Estimated human dosimetry, Spleen ([4]; Female): 0.133 rad/mCi
- Estimated human dosimetry, Stomach Wall ([4]; Female): 0.030 rad/mCi
- Estimated human dosimetry, Thymus ([4]; Female): 0.026 rad/mCi
- Estimated human dosimetry, Thyroid ([4]; Female): 0.038 rad/mCi
- Estimated human dosimetry, Total Body ([4]; Female): 0.039 rad/mCi
- Estimated human dosimetry, ULI Wall ([4]; Female): 0.031 rad/mCi
- Estimated human dosimetry, Urinary Bladder Wall ([4]; Female): 0.301 rad/mCi
- Estimated human dosimetry, Uterus ([4]; Female): 0.053 rad/mCi
- Estimated human dosimetry, Adrenals ([4]; Male): 0.043 rad/mCi
- Estimated human dosimetry, Brain ([4]; Male): 0.019 rad/mCi
- Estimated human dosimetry, Effective Dose ([4]; Male): 0.047 rem/mCi
- Estimated human dosimetry, Effective Dose Equivalent ([4]; Male): 0.062 rad/mCi
- Estimated human dosimetry, Gallbladder Wall ([4]; Male): 0.028 rad/mCi
- Estimated human dosimetry, Heart Wall ([4]; Male): 0.038 rad/mCi
- Estimated human dosimetry, Kidneys ([4]; Male): 0.083 rad/mCi
- Estimated human dosimetry, LLI Wall ([4]; Male): 0.029 rad/mCi
- Estimated human dosimetry, Liver ([4]; Male): 0.050 rad/mCi
- Estimated human dosimetry, Lungs ([4]; Male): 0.035 rad/mCi
- Estimated human dosimetry, Muscle ([4]; Male): 0.026 rad/mCi
- Estimated human dosimetry, Osteogenic Cells ([4]; Male): 0.155 rad/mCi
- Estimated human dosimetry, Pancreas ([4]; Male): 0.055 rad/mCi
- Estimated human dosimetry, Red Marrow ([4]; Male): 0.061 rad/mCi
- Estimated human dosimetry, Skin ([4]; Male): 0.016 rad/mCi
- Estimated human dosimetry, Small Intestine ([4]; Male): 0.026 rad/mCi
- Estimated human dosimetry, Spleen ([4]; Male): 0.110 rad/mCi
- Estimated human dosimetry, Stomach Wall ([4]; Male): 0.024 rad/mCi
- Estimated human dosimetry, Testes ([4]; Male): 0.022 rad/mCi
- Estimated human dosimetry, Thymus ([4]; Male): 0.020 rad/mCi
- Estimated human dosimetry, Thyroid ([4]; Male): 0.033 rad/mCi
- Estimated human dosimetry, Total Body ([4]; Male): 0.031 rad/mCi
- Estimated human dosimetry, ULI Wall ([4]; Male): 0.025 rad/mCi
- Estimated human dosimetry, Urinary Bladder Wall ([4]; Male): 0.220 rad/mCi

— patent US9993570B2, “Radiolabeled tracers for poly (ADP-ribose) polymerase-1 (PARP-1), methods and uses therefor” (Washington University, priority 2014, dated 2018)
